Earlier results on two molecules are cited in patent US20060287342A1, “Triazolopyrimidine heterocycles as cannabinoid receptor modulators” (priority 2005, published 2006).

Molecules are shown by their SMILES.

The conditions of data set [1]: chronic administration for two weeks.
The next data set has as its system human subjects. The settings on record: 16 week trial period.

As for `Cc1c(C(=O)NN2CCCCC2)nn(-c2ccc(Cl)cc2Cl)c1-c1ccc(I)cc1` [AM-251], the body weight result in data set [1] is reported as “substantial body weight reduction”.
For `Cc1c(C(=O)NN2CCCCC2)nn(-c2ccc(Cl)cc2Cl)c1-c1ccc(Cl)cc1` [SR-141716], in the data set on human subjects, the body weight entry is reported as “dose-dependently reduced body weight”.
